Source: patent US20250353833A1, “DPP9 BINDING COMPOUNDS” (UNIVERSITEIT ANTWERPEN, priority 2022, published 2025)
Where two headings read alike, the source gives them in different places.

Tests used:
Format in all cases: biochemical
PREP = PREP (Homo sapiens (Human), UniProt P48147); assay: PREP enzyme inhibition, IC50 measurement (N-succinyl-Gly-Pro-AMC release); conditions: mean ± SD (n = 3)
Method: (§1) IC50 measurements. […] The Magellan software was used to process the data, which was then fitted using a non-linear fit model in GraFit 7. […] As a blank, the assay buffer was used instead of the enzyme. Screening measurements were carried out in duplo and IC50 values were determined in triplo with at least eight different inhibitor concentrations as described by Van Goethem et al.

DPP9 = DPP9 (Homo sapiens (Human), UniProt Q86TI2); assay: DPP9 enzyme inhibition, IC50 measurement (Ala-Pro-pNA release); conditions: for SI DPP9/8: selectivity index, DPP8 IC50 over DPP9 IC50; for IC50: mean ± SD (n = 3); for SI DPP9/4: selectivity index DPP9/4
How it was run: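 DPP9 inhibitory potency was determined as IC50 in triplicate, using at least eight inhibitor concentrations. Blanks contained assay buffer in place of enzyme. Data were processed with Magellan software and fitted to a non-linear model in GraFit 7.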

DPP2 = DPP2 (Homo sapiens (Human), UniProt Q9UHL4); assay: DPP2 enzyme inhibition, IC50 measurement (Lys-Ala-pNA release); conditions: mean ± SD (n = 3)
Method: as §1

DPP8 = DPP8 (Homo sapiens (Human), UniProt Q6V1X1); assay: DPP8 enzyme inhibition, IC50 measurement (Ala-Pro-pNA release); conditions: mean ± SD (n = 3)
Method: as §1

FAP = FAP (Homo sapiens (Human), UniProt Q12884); assay: FAP enzyme inhibition, IC50 measurement (Z-Gly-Pro-AMC release); conditions: for IC50: mean ± SD (n = 3)
DPP4 = DPP4 (Homo sapiens (Human), UniProt P27487); assay: DPP4 enzyme inhibition, IC50 measurement (Ala-Pro-pNA release); conditions: for IC50: mean ± SD (n = 3)
Method: DPP4 was purified from human seminal plasma as described previously.^[3]
as §1

Chain of DPP9 (Q86TI2 whole entry): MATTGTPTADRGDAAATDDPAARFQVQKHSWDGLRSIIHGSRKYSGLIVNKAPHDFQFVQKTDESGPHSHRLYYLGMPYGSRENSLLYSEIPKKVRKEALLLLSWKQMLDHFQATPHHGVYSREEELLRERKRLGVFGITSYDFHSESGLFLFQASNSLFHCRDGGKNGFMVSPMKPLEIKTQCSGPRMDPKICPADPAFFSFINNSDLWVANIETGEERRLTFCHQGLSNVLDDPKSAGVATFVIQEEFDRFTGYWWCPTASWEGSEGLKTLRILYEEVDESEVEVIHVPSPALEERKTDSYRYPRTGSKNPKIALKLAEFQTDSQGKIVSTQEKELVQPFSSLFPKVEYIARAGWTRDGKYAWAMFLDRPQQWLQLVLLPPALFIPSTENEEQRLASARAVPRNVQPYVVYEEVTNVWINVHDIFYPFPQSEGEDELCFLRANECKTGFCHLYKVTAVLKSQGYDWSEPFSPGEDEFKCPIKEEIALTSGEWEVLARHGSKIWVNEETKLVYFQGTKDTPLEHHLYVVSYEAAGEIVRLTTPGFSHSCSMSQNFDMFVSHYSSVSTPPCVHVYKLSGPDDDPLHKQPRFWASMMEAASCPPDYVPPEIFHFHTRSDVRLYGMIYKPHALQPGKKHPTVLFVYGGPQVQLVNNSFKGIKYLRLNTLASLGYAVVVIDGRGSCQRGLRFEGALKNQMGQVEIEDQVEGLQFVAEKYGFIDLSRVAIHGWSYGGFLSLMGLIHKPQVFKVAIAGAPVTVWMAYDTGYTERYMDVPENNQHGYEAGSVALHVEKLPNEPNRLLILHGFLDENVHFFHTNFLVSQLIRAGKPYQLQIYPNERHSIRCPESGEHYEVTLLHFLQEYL
Chain of FAP (Q12884 27-760): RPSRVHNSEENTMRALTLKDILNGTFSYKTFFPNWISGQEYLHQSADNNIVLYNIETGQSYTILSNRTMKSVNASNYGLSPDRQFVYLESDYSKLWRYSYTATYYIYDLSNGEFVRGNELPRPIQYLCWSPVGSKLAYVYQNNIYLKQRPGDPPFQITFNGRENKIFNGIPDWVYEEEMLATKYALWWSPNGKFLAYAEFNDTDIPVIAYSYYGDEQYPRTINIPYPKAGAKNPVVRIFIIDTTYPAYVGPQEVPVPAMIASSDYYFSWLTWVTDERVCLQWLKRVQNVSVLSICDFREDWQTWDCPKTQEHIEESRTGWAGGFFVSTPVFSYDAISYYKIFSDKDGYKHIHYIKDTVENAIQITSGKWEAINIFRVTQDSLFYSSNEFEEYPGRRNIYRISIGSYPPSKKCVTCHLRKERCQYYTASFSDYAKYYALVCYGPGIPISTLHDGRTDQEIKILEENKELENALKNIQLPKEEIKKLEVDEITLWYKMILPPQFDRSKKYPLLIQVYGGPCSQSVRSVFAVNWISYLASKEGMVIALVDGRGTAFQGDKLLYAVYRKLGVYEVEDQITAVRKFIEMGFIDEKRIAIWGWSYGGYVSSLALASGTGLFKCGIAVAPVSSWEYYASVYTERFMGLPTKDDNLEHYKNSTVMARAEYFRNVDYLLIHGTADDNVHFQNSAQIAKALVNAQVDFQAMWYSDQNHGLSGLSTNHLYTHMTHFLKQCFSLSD
Chain of PREP (P48147 whole entry): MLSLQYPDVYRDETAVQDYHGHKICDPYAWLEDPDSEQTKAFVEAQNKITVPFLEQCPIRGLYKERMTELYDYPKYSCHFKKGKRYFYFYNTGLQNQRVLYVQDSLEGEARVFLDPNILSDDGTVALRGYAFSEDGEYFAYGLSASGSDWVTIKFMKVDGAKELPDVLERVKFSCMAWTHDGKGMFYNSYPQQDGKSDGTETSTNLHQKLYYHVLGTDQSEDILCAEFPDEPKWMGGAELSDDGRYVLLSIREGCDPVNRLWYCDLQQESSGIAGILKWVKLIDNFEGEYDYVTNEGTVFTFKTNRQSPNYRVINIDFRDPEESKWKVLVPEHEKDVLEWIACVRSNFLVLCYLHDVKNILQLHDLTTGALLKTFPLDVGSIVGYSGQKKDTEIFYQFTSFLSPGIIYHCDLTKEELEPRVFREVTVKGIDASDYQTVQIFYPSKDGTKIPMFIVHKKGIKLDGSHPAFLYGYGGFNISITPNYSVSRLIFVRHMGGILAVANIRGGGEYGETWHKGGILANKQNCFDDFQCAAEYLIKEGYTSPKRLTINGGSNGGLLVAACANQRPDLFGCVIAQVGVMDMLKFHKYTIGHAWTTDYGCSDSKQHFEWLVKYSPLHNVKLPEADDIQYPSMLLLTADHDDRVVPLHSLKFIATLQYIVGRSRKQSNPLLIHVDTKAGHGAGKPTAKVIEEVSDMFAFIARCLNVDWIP
Chain of DPP8 (Q6V1X1 whole entry): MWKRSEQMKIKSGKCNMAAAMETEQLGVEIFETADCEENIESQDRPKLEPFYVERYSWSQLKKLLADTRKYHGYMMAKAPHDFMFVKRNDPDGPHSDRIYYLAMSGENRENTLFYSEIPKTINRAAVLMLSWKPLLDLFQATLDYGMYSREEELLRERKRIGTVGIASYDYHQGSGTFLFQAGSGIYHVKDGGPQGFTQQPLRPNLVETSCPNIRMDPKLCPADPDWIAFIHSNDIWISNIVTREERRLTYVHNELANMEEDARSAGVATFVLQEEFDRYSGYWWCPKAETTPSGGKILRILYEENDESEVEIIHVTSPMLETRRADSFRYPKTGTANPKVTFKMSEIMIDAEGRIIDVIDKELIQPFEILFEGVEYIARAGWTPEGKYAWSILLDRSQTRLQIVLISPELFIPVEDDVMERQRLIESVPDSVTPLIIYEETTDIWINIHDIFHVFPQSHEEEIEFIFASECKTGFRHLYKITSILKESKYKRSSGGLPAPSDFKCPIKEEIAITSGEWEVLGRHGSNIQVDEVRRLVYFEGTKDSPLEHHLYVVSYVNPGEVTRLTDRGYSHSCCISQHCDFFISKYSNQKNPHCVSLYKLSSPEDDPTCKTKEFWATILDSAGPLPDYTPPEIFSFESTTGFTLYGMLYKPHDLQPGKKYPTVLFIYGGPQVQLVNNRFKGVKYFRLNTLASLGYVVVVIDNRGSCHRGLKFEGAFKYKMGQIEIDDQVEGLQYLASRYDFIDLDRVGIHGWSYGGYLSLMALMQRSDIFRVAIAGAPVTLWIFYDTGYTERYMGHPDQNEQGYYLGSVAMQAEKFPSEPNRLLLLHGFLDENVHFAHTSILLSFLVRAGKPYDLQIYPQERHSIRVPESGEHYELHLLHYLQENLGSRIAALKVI
Chain of DPP4 (P27487 whole entry): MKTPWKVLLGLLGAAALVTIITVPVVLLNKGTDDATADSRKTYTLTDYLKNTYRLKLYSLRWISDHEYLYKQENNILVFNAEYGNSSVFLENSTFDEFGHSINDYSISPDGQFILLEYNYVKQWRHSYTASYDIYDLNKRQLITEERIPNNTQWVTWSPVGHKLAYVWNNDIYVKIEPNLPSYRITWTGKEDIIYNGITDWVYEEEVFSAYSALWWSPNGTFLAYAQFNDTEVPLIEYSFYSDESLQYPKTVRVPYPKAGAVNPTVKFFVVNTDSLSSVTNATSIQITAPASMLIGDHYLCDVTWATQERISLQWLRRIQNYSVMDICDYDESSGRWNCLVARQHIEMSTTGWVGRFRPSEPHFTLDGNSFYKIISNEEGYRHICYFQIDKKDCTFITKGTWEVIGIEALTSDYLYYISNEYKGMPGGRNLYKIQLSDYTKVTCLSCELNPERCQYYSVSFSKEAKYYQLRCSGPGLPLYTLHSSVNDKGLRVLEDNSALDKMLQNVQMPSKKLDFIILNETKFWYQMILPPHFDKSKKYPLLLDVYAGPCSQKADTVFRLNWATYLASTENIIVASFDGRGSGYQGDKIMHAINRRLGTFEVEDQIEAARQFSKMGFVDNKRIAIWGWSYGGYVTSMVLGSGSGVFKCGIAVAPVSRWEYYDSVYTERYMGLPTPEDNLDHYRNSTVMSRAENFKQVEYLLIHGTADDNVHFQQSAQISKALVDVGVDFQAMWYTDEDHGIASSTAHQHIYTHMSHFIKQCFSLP

Compound | IC50 (PREP; Table 1) [nM] | SI DPP9/8 (DPP9; Table 1) | IC50 (DPP2; Table 1) [nM] | IC50 (DPP8; Table 1, read-out: IC50 DPP8) [nM] | IC50 (FAP; Table 1) [nM] | IC50 (DPP4; Table 1) [nM] | IC50 (DPP9; Table 1, read-out: IC50 DPP9) [nM] | SI DPP9/4 (DPP9; Table 1) | other results
N#C[C@@H]1CCCN1C(=O)CNC12CC3CC(C1)CC(OCc1ccccc1)(C3)C2 [Compound 5a, (S)-1-((-3-(benzyloxy)adamantan-1-yl)glycyl)pyrrolidine-2-carbonitrile] | 4300 ± 300 | 9.9 | > 5000 | 1320 ± 200 | 4000 ± 4000 |  |  |  | inhibition of FAP (FAP; at the tested concentrations): micromolar inhibitor
N#C[C@@H]1CCCN1C(=O)CNC12CC3CC(C1)CC(OCc1ccc(F)cc1F)(C3)C2 [Compound 5b, (S)-1-((-3-((2,4-difluorobenzyl)oxy)adamantan-1-yl)glycyl)pyrrolidine-2-carbonitrile] | 2200 ± 200 | 10 | > 5000 | 540 ± 100 | > 10000 | 5 ± 1 | 52 ± 8 | 0.1 | 
CCCCOC12CC3CC(CC(NCC(=O)N4CCC[C@H]4C#N)(C3)C1)C2 [Compound 5c, (2S)-1-((-3-butoxyadamantan-1-yl)glycyl)pyrrolidine-2-carbonitrile] | > 10000 | 8.5 | > 5000 | 1250 ± 100 | > 10000 | 12 ± 2 | 150 ± 10 | 0.07 | 
N#C[C@@H]1C[C@H](N=[N+]=[N-])CN1C(=O)CNC12CC3CC(CC(O)(C3)C1)C2 [Compound 5d, (2S,4S)-4-azido-1-((-3-hydroxyadamantan-1-yl)glycyl)pyrrolidine-2-carbonitrile] | > 10000 | 9.4 | > 5000 | 150 ± 20 | > 10000 | 32 ± 3 | 16 ± 1 | 2 | 
N#C[C@@H]1C[C@H](N=[N+]=[N-])CN1C(=O)CNC12CC3CC(C1)CC(OCc1ccccc1)(C3)C2 [Compound 5e, (2S,4S)-4-azido-1-((3-(benzyloxy)adamantan-1-yl)glycyl)pyrrolidine-2-carbonitrile] | > 10000 | 6.0 | > 5000 | 60 ± 4 | > 10000 | 17 ± 3 | 10 ± 1 | 1.7 | 
N#C[C@@H]1C[C@H](N=[N+]=[N-])CN1C(=O)CNC12CC3CC(C1)CC(OCc1ccc(F)cc1F)(C3)C2 [Compound 5f, (2S,4S)-4-azido-1-((3-((2,4-difluorobenzyl)oxy)adamantan-1-yl)glycyl)pyrrolidine-2-carbonitrile] | > 10000 | 6.8 | > 5000 | 41 ± 7 | > 10000 | 24 ± 3 | 6 ± 1 | 3.3 | DPP9 inhibitory potency (in words) (DPP9): most potent DPP9 inhibitor
CCCCOC12CC3CC(CC(NCC(=O)N4C[C@@H](N=[N+]=[N-])C[C@H]4C#N)(C3)C1)C2 [Compound 5g, (2S,4S)-4-azido-1-((3-butoxyadamantan-1-yl)glycyl)pyrrolidine-2-carbonitrile] | > 10000 | 7.8 | > 5000 | 270 ± 60 | > 10000 |  | 35 ± 2 | 3.8 | 
C=C1C[C@@H](C#N)N(C(=O)CNC23CC4CC(CC(O)(C4)C2)C3)C1 [Compound 5h, (2S)-1-((3-hydroxyadamantan-1-yl)glycyl)-4-methylenepyrrolidine-2-carbonitrile] | > 10000 | 3.9 | > 5000 | 1000 ± 200 | > 10000 | 230 ± 70 | 260 ± 30 | 0.9 | 
C=C1C[C@@H](C#N)N(C(=O)CNC23CC4CC(C2)CC(OCc2ccccc2)(C4)C3)C1 [Compound 5i, (S)-1-((3-(benzyloxy)adamantan-1-yl)glycyl)-4-methylenepyrrolidine-2-carbonitrile] | 8920 ± 1000 | 2.9 | 1270 ± 200 | 340 ± 6 | > 10000 | 280 ± 10 | 120 ± 30 | 2.3 | 
C=C1C[C@@H](C#N)N(C(=O)CNC23CC4CC(C2)CC(OCc2ccc(F)cc2F)(C4)C3)C1 [Compound 5j, (2S)-1-((3-((2,4-difluorobenzyl)oxy)adamantan-1-yl)glycyl)-4-methylenepyrrolidine-2-carbonitrile] | > 10000 | 2.8 | 1100 ± 80 | 370 ± 70 | > 10000 | 410 ± 100 | 130 ± 20 | 3.1 | 
C=C1C[C@@H](C#N)N(C(=O)CNC23CC4CC(C2)CC(OCCCC)(C4)C3)C1 [Compound 5k, (S)-1-((-3-butoxyadamantan-1-yl)glycyl)-4-methylenepyrrolidine-2-carbonitrile] | 2200 ± 200 | 2.5 | 1200 ± 400 | 530 ± 10 | > 10000 | 320 ± 10 | 210 ± 50 | 1.5 | 
N#C[C@@H]1[C@@H]2C[C@@H]2CN1C(=O)CNC12CC3CC(C1)CC(OCc1ccccc1)(C3)C2 [Compound 5m, (1R,2S,5S)-3-((-3-(benzyloxy)adamantan-1-yl)glycyl)-3-azabicyclo[3.1.0]hexane-2-carbonitrile] | > 10000 | 8.7 | > 5000 | 5900 ± 400 | > 10000 | 100 ± 40 | 670 ± 200 | 0.15 | 
N#C[C@@H]1[C@@H]2C[C@@H]2CN1C(=O)CNC12CC3CC(C1)CC(OCc1ccc(F)cc1F)(C3)C2 [Compound 5n, (1R,2S,5S)-3-((3-((2,4-difluorobenzyl)oxy)adamantan-1-yl)glycyl)-3-azabicyclo[3.1.0]hexane-2-carbonitrile] | > 10000 | 3.4 | > 5000 | 2000 ± 2000 | > 10000 | 200 ± 10 | 620 ± 10 | 0.3 | 
CCCCOC12CC3CC(CC(NCC(=O)N4C[C@H]5C[C@H]5[C@H]4C#N)(C3)C1)C2 [Compound 5o, (1R,2S,5S)-3-((-3-butoxyadamantan-1-yl)glycyl)-3-azabicyclo[3.1.0]hexane-2-carbonitrile] | > 10000 |  | > 5000 | > 10000 | > 10000 |  | 990 ± 400 |  | 
O=C(CNC12CC3CC(CC(O)(C3)C1)C2)N1Cc2ccccc2C1 [Compound 5p, 2-((-3-hydroxyadamantan-1-yl)amino)-1-(isoindolin-2-yl)ethan-1-one] |  |  |  |  |  |  |  |  | DPP4 potency decrease (DPP4; 5p compared with vildagliptin/4): at least 100 fold; IC50 (DPP4; Table 2): > 10000 nM; IC50 (PREP; Table 2): > 10000 nM; IC50 (DPP9; Table 2, read-out: IC50 DPP9): 4100 ± 700 nM; SI DPP9/4 (DPP9; Table 2): >2.4; SI DPP9/8 (DPP9; Table 2): 4.3; IC50 (DPP2; Table 2): > 5000 nM; IC50 (DPP8; Table 2, read-out: IC50 DPP8): 17700 ± 800 nM; IC50 (FAP; Table 2): > 10000 nM
lithium (((3-((2-(5-fluoroisoindolin-2-yl)-2-oxoethyl)amino)adamantan-1-yl)oxy)carbonyl)-L-tryptophanate [Compound 56] |  |  |  |  |  |  |  |  | IC50 (DPP9; Table 3, read-out: DPP9 IC50 ± SD): 94.6 nM; SI DPP9/8 (DPP9; Table 3): 22.0; IC50 (DPP8; Table 3, read-out: DPP8 IC50 ± SD): 2080 ± 184 nM
